Where a name gives a salt, the structure may show the parent alone.
System: adiponectin
Assay: Comparative test for adiponectin production enhancing effect: plasma adiponectin concentration by radioimmunoassay
Type: in vivo
Settings: female db/db mice, one week oral; Compound A 0.3 mg/kg vs B 3 mg/kg (P<0.001) and vs C 30 mg/kg (P<0.01), Tukey's multiple comparison test
Description: Plasma glucose levels and plasma adiponectin concentrations were compared between each of the groups respectively. The plasma adiponectin concentration was measured using a radioimmunoassay kit (Mouse Adiponectin RIA Kit, Linco Research, Inc.). Plasma was diluted by 100 times using a buffer provided with the kit, and measurement was conducted using the diluted plasma (5 μL) (final dilution rate: 2000 times). The radioactivity was measured using a gamma counter, and adiponectin concentration was calculated from the measured radioactivity (measurement unit: μg/mL).

COc1ccc2nc(COc3ccc(CC4SC(=O)NC4=O)cc3)n(C)c2c1 (stereo not shown) [Compound A, 5-[4-(6-Methoxy-1-methyl-1H-benzimidazol-2-ylmethoxy)benzyl]thiazolidine-2,4-dione hydrochloride]
plasma adiponectin concentration compared with Compound B and Compound C administration groups: significant increasing effect
